From US20230257396A1, “MACROCYCLES AND THEIR USE” (BLOSSOMHILL THERAPEUTICS, INC., priority 2020, published 2023)
Changes are numbered by the printed parent chain. One block for each compound: values may come before it.

What was measured:
Experiment in all cases: KINOMEscan kinase binding assay (Eurofins/DiscoveRx), % Ctrl
Settings in all cases: 1 μM
kinases [1] = molecular target: T1, kinases (Homo sapiens, UniProt P36888, D835H)
T1 construct: purchased Eurofins/DiscoveRx; host or cells: E. coli BL21-derived host (T7 phage display) for most kinases; HEK-293 for the rest
T1 sequence (P36888 27-993 D835H): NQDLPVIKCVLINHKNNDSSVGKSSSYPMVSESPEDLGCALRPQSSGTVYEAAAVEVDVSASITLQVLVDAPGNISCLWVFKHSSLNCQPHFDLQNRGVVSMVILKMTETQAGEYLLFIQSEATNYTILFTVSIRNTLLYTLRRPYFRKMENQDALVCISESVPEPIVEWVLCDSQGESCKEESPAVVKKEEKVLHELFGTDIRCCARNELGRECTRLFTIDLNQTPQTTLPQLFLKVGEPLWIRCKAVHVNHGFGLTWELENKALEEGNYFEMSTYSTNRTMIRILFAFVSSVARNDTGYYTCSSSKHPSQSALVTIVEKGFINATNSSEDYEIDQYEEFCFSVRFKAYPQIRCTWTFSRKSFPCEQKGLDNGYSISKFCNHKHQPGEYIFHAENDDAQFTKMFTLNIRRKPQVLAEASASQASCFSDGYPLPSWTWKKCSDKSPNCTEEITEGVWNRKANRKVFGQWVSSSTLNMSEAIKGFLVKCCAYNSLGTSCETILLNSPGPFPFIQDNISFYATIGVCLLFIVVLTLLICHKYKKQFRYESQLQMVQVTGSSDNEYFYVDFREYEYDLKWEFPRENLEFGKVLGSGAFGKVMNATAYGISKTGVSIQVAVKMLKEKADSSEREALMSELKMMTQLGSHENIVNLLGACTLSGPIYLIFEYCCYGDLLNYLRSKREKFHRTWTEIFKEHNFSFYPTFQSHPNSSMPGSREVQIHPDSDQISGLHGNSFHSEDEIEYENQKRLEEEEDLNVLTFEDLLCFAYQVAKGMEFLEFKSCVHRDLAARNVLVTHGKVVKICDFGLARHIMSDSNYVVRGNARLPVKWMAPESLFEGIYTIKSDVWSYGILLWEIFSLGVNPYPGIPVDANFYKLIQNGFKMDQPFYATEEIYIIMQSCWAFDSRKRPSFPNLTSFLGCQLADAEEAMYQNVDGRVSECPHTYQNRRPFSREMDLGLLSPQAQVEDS
In short: (§1)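 Competition binding: DNA- or phage-tagged kinases (T7 phage in E. coli BL21, or HEK-293-expressed) with immobilized biotinylated ligand beads and test compound, 1 h at room temperature. Bead-bound kinase eluted and quantified by qPCR; % Ctrl = (compound − positive control)/(negative control − positive control) ×100 at a single compound concentration.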

kinases [2] = molecular target: T2, kinases (Homo sapiens, UniProt P00533, DEL746-750)
T2 construct: purchased Eurofins/DiscoveRx; host or cells: E. coli BL21-derived host (T7 phage display) for most kinases; HEK-293 for the rest
In short: as §1

kinases [3] = molecular target: T3, kinases (Homo sapiens, UniProt P36888, R834Q)
T3 construct: purchased Eurofins/DiscoveRx; host or cells: E. coli BL21-derived host (T7 phage display) for most kinases; HEK-293 for the rest
T3 sequence (P36888 27-993 R834Q): T1 sequence (P36888 27-993 D835H) with R808Q, H809D
In short: as §1

kinases [4] = molecular target: T4, kinases (Homo sapiens, UniProt P00519, H396P)
T4 construct: purchased Eurofins/DiscoveRx; host or cells: E. coli BL21-derived host (T7 phage display) for most kinases; HEK-293 for the rest
In short: as §1

kinases [5] = molecular target: T5, kinases (Homo sapiens, UniProt P10721, D816V)
T5 construct: purchased Eurofins/DiscoveRx; host or cells: E. coli BL21-derived host (T7 phage display) for most kinases; HEK-293 for the rest
In short: as §1

[6] = target ABL1(H396P)-nonphosphorylated
[7] = target ABL1(H396P)-phosphorylated

T5 sequence (P10721 26-976 D816V): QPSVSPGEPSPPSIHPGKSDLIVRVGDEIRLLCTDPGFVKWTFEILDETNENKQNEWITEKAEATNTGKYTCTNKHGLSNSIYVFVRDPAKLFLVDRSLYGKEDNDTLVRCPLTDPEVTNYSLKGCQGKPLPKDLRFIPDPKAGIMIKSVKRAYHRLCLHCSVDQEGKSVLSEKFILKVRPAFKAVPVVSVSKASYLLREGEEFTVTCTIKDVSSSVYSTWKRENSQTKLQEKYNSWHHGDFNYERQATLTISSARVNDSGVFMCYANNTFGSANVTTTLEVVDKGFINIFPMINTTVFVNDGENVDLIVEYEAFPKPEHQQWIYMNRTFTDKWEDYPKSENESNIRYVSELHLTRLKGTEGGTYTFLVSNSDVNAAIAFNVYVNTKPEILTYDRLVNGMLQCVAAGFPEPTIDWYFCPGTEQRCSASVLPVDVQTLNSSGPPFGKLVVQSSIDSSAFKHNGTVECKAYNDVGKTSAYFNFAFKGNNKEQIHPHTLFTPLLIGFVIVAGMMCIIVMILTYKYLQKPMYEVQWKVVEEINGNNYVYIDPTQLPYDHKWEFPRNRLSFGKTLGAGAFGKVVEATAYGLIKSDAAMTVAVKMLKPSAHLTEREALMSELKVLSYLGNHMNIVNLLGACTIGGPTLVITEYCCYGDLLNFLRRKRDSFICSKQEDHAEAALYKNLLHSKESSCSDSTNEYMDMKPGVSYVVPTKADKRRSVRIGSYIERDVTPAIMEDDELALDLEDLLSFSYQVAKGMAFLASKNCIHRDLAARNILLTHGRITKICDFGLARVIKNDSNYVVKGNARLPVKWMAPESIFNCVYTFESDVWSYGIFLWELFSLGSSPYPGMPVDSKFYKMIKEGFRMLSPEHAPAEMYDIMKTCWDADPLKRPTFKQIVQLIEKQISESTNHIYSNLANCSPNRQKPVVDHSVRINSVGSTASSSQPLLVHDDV

Structure (SMILES): CNC(=O)[C@H]1CN(C)C(=O)c2cc(C)[nH]c2/C=C2\C(=O)Nc3cc(Cl)c(cc32)OCCO1 [Ex. 135, [7R,16a(17)Z]-19-chloro-N,2,5-trimethyl-4,16-dioxo-4,5,6,7,9,10,15,16-octahydro-1H-12,14-(ethanediylidene)dipyrrolo[3,2-i:3′,4′-l][1,4,7]dioxazacyclopentadecine-7-carboxamide]
- % Ctrl, FLT3(D835H) (kinases [1]; FLT3(D835H)): 37 % Ctrl
- % Ctrl, EGFR(E746-A750del) (kinases [2]; EGFR(E746-A750del)): 99 % Ctrl
- % Ctrl, FLT3(R834Q) (kinases [3]; FLT3(R834Q)): 63 % Ctrl
- % Ctrl, ABL1(H396P)-nonphosphorylated (kinases [4]; ABL1(H396P)-nonphosphorylated): 29 % Ctrl
- % Ctrl, ABL1(H396P)-phosphorylated (kinases [4]; ABL1(H396P)-phosphorylated): 54 % Ctrl
- % Ctrl, KIT(D816V) (kinases [5]; KIT(D816V)): 76 % Ctrl

Structure (SMILES): Cc1cc2c([nH]1)/C=C1\C(=O)Nc3cc(Cl)c(cc31)OCCO[C@@H](C(=O)N(C)C)CN(C)C2=O [Ex. 137, [7R,16a(17)Z]-19-chloro-N,N,2,5-tetramethyl-4,16-dioxo-4,5,6,7,9,10,15,16-octahydro-1H-12,14-(ethanediylidene)dipyrrolo[3,2-i:3′,4′-l][1,4,7]dioxazacyclopentadecine-7-carboxamide]
- % Ctrl, FLT3(D835H) (kinases [1]; FLT3(D835H)): 53 % Ctrl
- % Ctrl, EGFR(E746-A750del) (kinases [2]; EGFR(E746-A750del)): 98 % Ctrl
- % Ctrl, FLT3(R834Q) (kinases [3]; FLT3(R834Q)): 65 % Ctrl
- % Ctrl, ABL1(H396P)-nonphosphorylated (kinases [4]; ABL1(H396P)-nonphosphorylated): 38 % Ctrl
- % Ctrl, ABL1(H396P)-phosphorylated (kinases [4]; ABL1(H396P)-phosphorylated): 65 % Ctrl
- % Ctrl, KIT(D816V) (kinases [5]; KIT(D816V)): 67 % Ctrl

Structure (SMILES): Cc1cc2c([nH]1)/C=C1\C(=O)Nc3cc(Cl)c(cc31)OCCO[C@@H](C(=O)N1CCN(C)CC1)CN(C)C2=O [Ex. 138, [7R,16a(17)Z]-19-chloro-2,5-dimethyl-7-(4-methylpipearazine-1-carbonyl)-6,7,9,10-tetrahydro-1H-12,14-(ethanediylidene)dipyrrolo[3,2-i:3′,4′-l][1,4,7]dioxazacyclopentadecine-4,16(5H,15H)-dione]
- % Ctrl, FLT3(D835H) (kinases [1]; target FLT3(D835H)): 73 % Ctrl
- % Ctrl, EGFR(E746-A750del) (kinases [2]; target EGFR(E746-A750del)): 78 % Ctrl
- % Ctrl, FLT3(R834Q) (kinases [3]; target FLT3(R834Q)): 99 % Ctrl
- % Ctrl, ABL1(H396P)-nonphosphorylated (kinases [4]; [6]): 69 % Ctrl
- % Ctrl, ABL1(H396P)-phosphorylated (kinases [4]; [7]): 82 % Ctrl
- % Ctrl, KIT(D816V) (kinases [5]; target KIT(D816V)): 100 % Ctrl

Structure (SMILES): Cc1cc2c([nH]1)/C=C1\C(=O)Nc3ccc(cc31)-c1c(noc1C)CNCCN(C)C2=O [Ex. 139, [3a(4)Z]-6,9,16-trimethyl-10,11,12,13-tetrahydro-2H-1,17-(ethanediylidene)[1,2]oxazolo[4,3-m]dipyrrolo[3,2-f:3′,4′-i][1,4]diazacyclopentadecine-3,8(5H,9H)-dione]
- % Ctrl, FLT3(D835H) (kinases [1]; target FLT3(D835H)): 14 % Ctrl
- % Ctrl, EGFR(E746-A750del) (kinases [2]; target EGFR(E746-A750del)): 72 % Ctrl
- % Ctrl, FLT3(R834Q) (kinases [3]; target FLT3(R834Q)): 39 % Ctrl
- % Ctrl, ABL1(H396P)-nonphosphorylated (kinases [4]; [6]): 2 % Ctrl
- % Ctrl, ABL1(H396P)-phosphorylated (kinases [4]; [7]): 9.5 % Ctrl
- % Ctrl, KIT(D816V) (kinases [5]; target KIT(D816V)): 63 % Ctrl

Results, then the compound that gave them:

- % Ctrl, FLT3(D835H) (kinases [1]; FLT3(D835H)): 35 % Ctrl
- % Ctrl, EGFR(E746-A750del) (kinases [2]; EGFR(E746-A750del)): 89 % Ctrl
- % Ctrl, FLT3(R834Q) (kinases [3]; FLT3(R834Q)): 59 % Ctrl
- % Ctrl, ABL1(H396P)-nonphosphorylated (kinases [4]; ABL1(H396P)-nonphosphorylated): 25 % Ctrl
- % Ctrl, ABL1(H396P)-phosphorylated (kinases [4]; ABL1(H396P)-phosphorylated): 35 % Ctrl
- % Ctrl, KIT(D816V) (kinases [5]; KIT(D816V)): 56 % Ctrl
Structure (SMILES): Cc1cc2c([nH]1)/C=C1\C(=O)Nc3cc(Cl)c(cc31)OCCO[C@@H](C(=O)NC1CCNCC1)CN(C)C2=O [Ex. 134, [7R,16a(17)Z]-19-chloro-2,5-dimethyl-4,16-dioxo-N-(piperidin-4-yl)-4,5,6,7,9,10,15,16-octahydro-1H-12,14-(ethaneidylidene)dipyrrolo[3,2-i:3′,4′-l][1,4,7]dioxazacyclopentadecine-7-carboxamide]

- % Ctrl, FLT3(D835H) (kinases [1]; FLT3(D835H)): 32 % Ctrl
- % Ctrl, EGFR(E746-A750del) (kinases [2]; EGFR(E746-A750del)): 76 % Ctrl
- % Ctrl, FLT3(R834Q) (kinases [3]; FLT3(R834Q)): 50 % Ctrl
- % Ctrl, ABL1(H396P)-nonphosphorylated (kinases [4]; ABL1(H396P)-nonphosphorylated): 11 % Ctrl
- % Ctrl, ABL1(H396P)-phosphorylated (kinases [4]; ABL1(H396P)-phosphorylated): 22 % Ctrl
- % Ctrl, KIT(D816V) (kinases [5]; KIT(D816V)): 36 % Ctrl
Structure (SMILES): Cc1cc2c([nH]1)/C=C1\C(=O)Nc3cc(Cl)c(cc31)OCCO[C@@H](C(=O)N[C@@H]1CCNC1)CN(C)C2=O [Ex. 136, [7R,16a(17)Z]-19-chloro-2,5-dimethyl-4,16-dioxo-N-[(3R)-pyrrolidin-3-yl]-4,5,6,7,9,10,15,16-octahydro-1H-12,14-(ethanediylidene)dipyrrolo[3,2-i:3′,4′-l][1,4,7]dioxazacyclopentadecine-7-carboxamide]

- % Ctrl, FLT3(D835H) (kinases [1]; target FLT3(D835H)): 0.8 % Ctrl
- % Ctrl, EGFR(E746-A750del) (kinases [2]; target EGFR(E746-A750del)): 65 % Ctrl
- % Ctrl, FLT3(R834Q) (kinases [3]; target FLT3(R834Q)): 33 % Ctrl
- % Ctrl, ABL1(H396P)-nonphosphorylated (kinases [4]; [6]): 1.6 % Ctrl
- % Ctrl, ABL1(H396P)-phosphorylated (kinases [4]; [7]): 11 % Ctrl
- % Ctrl, KIT(D816V) (kinases [5]; target KIT(D816V)): 34 % Ctrl
Structure (SMILES): CN1CCOCCOc2cc3c(cc2Cl)NC(=O)/C3=C\c2[nH]ccc2C1=O [Ex. 143, [16a(17)Z]-19-chloro-2,5-dimethyl-6,7,9,10-tetrahydro-1H-12,14-(ethanediylidene)dipyrrolo[3,2-i:3′,4′-l][1,4,7]oxathiazacyclopentadecine-4,16(5H,15H)-dione]

- % Ctrl, FLT3(D835H) (kinases [1]; target FLT3(D835H)): 5.7 % Ctrl
- % Ctrl, EGFR(E746-A750del) (kinases [2]; target EGFR(E746-A750del)): 73 % Ctrl
- % Ctrl, FLT3(R834Q) (kinases [3]; target FLT3(R834Q)): 97 % Ctrl
- % Ctrl, ABL1(H396P)-nonphosphorylated (kinases [4]; [6]): 50 % Ctrl
- % Ctrl, ABL1(H396P)-phosphorylated (kinases [4]; [7]): 80 % Ctrl
- % Ctrl, KIT(D816V) (kinases [5]; target KIT(D816V)): 80 % Ctrl
Structure (SMILES): Cc1cc2c([nH]1)/C=C1\C(=O)Nc3ccc(cc31)-c1c(C)nn(C)c1COCCN(C)C2=O [Ex. 146, [3a(4)Z]-6,9,14,16-tetramethyl-10,11,13,14-tetrahydro-2H-1,17-(ethanediylidene)pyrazolo[4,3-m]dipyrrolo[3,2-f:3′,4′-i][1,4]oxazacyclopentadecine-3,8(5H,9H)-dione]
